These results are taken from paper PMC7184563 (Journal of Medicinal Chemistry, 2020).

In series [1] the target is T1, BCL6 (Homo sapiens, UniProt P41182). The series is classed as cell-based. Conditions: SU-DHL-4.
The target of another series is BCL6 BTB (Homo sapiens, UniProt P41182). The series can be described thus: biochemical. Conditions: BCL6 IC50 (FP), geometric mean.
Series [2] in a line: Microsomal clearance assay, mouse liver microsomes. It is filed as in vitro ADME.
Series [3] addresses T1, BCL6. Briefly: Western blot of BCL6 protein levels, SU-DHL-4 cells. It is filed as cell-based. Conditions: 4 h at 37 °C. A general note: In western blotting, separated proteins are transferred to a membrane and probed.
The target of series [4] is T1, BCL6. The series can be described thus: Western blot of BCL6 protein levels, OCI-Ly1 cells. Conditions: 4 h at 37 °C. It is filed as cell-based.
Another series in a line: HPLC solubility assay. The series is classed as physicochemical. The note with it: kinetic solubility by HPLC in PBS buffer, 1% DMSO, pH 7.4.
A further series in a line: PAMPA permeability. It is filed as in vitro ADME.
The nature of a further series: Microsomal clearance. It is filed as in vitro ADME.
The format of series [5] is in vivo, mouse. Conditions: 1 mg/kg iv and 5 mg/kg po, after dosing and 24 h after dose.
A short description of series [6]: PK study in SCID mouse, po. It is filed as in vivo. Conditions: 15 mg/kg po.
In a further series the target is BCL6 levels in tumor (Homo sapiens, UniProt P41182). Briefly: PK/PD study in OCI-Ly1 DLBCL xenograft model. The note with it: single dose 15 mg/kg po.

Molecules are shown by their SMILES.

On to `C[C@@H]1CN(c2ncc(Cl)c(Nc3ccc4c(c3)n(CCC(C)(C)O)c(=O)n4C)n2)C[C@H](C)N1C` [Compound 25c, 5-((5-Chloro-2-((3S,5R)-3,4,5-trimethylpiperazin-1-yl)pyrimidin-4-yl)amino)-3-(3-hydroxy-3-methylbutyl)-1-methyl-1,3-dihydro-2H-benzo[d]imidazol-2-one], for which the “BCL6 degradation in the IF assay (in words)” value (from here on “BCL6 degradation”) on BCL6 [1] is “not capable of inducing BCL6 degradation”.

In the case of `Cn1c(=O)n(CCC(C)(C)O)c2cc(Nc3nc(N4C5CCC4CC(F)(F)C5)ncc3Cl)ccc21` [Compound 28b, 5-((5-Chloro-2-(3,3-difluoro-8-azabicyclo[3.2.1]octan-8-yl)pyrimidin-4-yl)amino)-3-(3-hydroxy-3-methylbutyl)-1-methyl-1,3-dihydro-2H-benzo[d]imidazol-2-one], at BCL6 [1], the “BCL6 degradation” value was “loss of degradation activity”.

Turning to `N#Cc1c(NCc2ccccc2)ccnc1Cl` [Compound 2], the IC50 against BCL6 BTB was about 100 µM.

As to `C[C@@H]1C[C@H](C)CN(c2ncc(Cl)c(Nc3ccc4c(c3)n(CCC(C)(C)O)c(=O)n4C)n2)C1` [Compound 24b, 5-((5-Chloro-2-((3S,5R)-3,5-dimethylpiperidin-1-yl)pyrimidin-4-yl)amino)-3-(3-hydroxy-3-methylbutyl)-1-methyl-1,3-dihydro-2H-benzo[d]imidazol-2-one], the “BCL6 degradation” value at BCL6 [1] is reported as “identified as degraders”. The “metabolism in mouse microsomes (in words)” value in [2] is “rapid metabolism”. Also, the “BCL6 protein levels by Western blot, SU-DHL-4” value at BCL6 [3] is recorded as “concentration-dependent reduction in BCL6 protein levels”. Besides, at BCL6 [4], the “BCL6 protein levels by Western blot, OCI-Ly1” value is “concentration-dependent reduction in BCL6 protein levels”.

Turning to `Cn1c(=O)n(CCC(C)(C)O)c2cc(Nc3nc(N4CCC(C(F)(F)F)CC4)ncc3Cl)ccc21` [Compound 27h, 5-((5-Chloro-2-(4-(trifluoromethyl)piperidin-1-yl)pyrimidin-4-yl)amino)-3-(3-hydroxy-3-methylbutyl)-1-methyl-1,3-dihydro-2H-benzo[d]imidazol-2-one], on BCL6 [1], the “BCL6 degradation” value is given as “loss of degradation activity”.

In the case of `Cn1c(=O)n(C)c2cc(Nc3ccnc(Cl)c3C#N)ccc21` [Compound 6, 2-Chloro-4-((1,3-dimethyl-2-oxo-2,3-dihydro-1H-benzo[d]imidazol-5-yl)amino)nicotinonitrile], the “Aq. sol. (HPLC, shown in parentheses)” value in “HPLC solubility assay” is “(16) μM”. In addition, the “PAMPA permeability (in words)” value in the series “PAMPA permeability” is “high PAMPA permeability”. Also, the “microsomal clearance (in words)” value in “Microsomal clearance” was “Low microsomal clearance”.

Take `C[C@@H]1C[C@H](C)CN(c2cc(Nc3ccc4c(c3)n(CCC(C)(C)O)c(=O)n4C)c(Cl)cn2)C1` [Compound 26b, 5-((5-Chloro-2-((3S,5R)-3,5-dimethylpiperidin-1-yl)pyridin-4-yl)amino)-3-(3-hydroxy-3-methylbutyl)-1-methyl-1,3-dihydro-2H-benzo[d]imidazol-2-one]: the “BCL6 degradation” value on BCL6 [1] was “identified as degraders”.

For the compound `Cn1c(=O)n(CCC(C)(C)O)c2cc(Nc3nc(N4CC5CCC(C4)C5(F)F)ncc3Cl)ccc21` [Compound 28a, 5-((5-Chloro-2-(8,8-difluoro-3-azabicyclo[3.2.1]octan-3-yl)pyrimidin-4-yl)amino)-3-(3-hydroxy-3-methylbutyl)-1-methyl-1,3-dihydro-2H-benzo[d]imidazol-2-one], on BCL6 [1], the “BCL6 degradation” value is “loss of degradation activity”.

Regarding `CC1CCCN(c2ncc(Cl)c(Nc3ccc4c(c3)n(CCC(C)(C)O)c(=O)n4C)n2)C1` (centres unmarked) [Compound 24a, 5-((5-Chloro-2-(3-methylpiperidin-1-yl)pyrimidin-4-yl)amino)-3-(3-hydroxy-3-methylbutyl)-1-methyl-1,3-dihydro-2H-benzo[d]imidazol-2-one], the “BCL6 degradation” value on BCL6 [1] was “identified as degraders”. Moreover, the “metabolism in mouse microsomes (in words)” value in series [2] is recorded as “rapid metabolism”.

`Cn1c(=O)n(CCC(C)(C)O)c2cc(Nc3nc(N4CCCC(C#N)C4)ncc3Cl)ccc21` (centres unmarked) [Compound 27g, 1-(5-Chloro-4-((3-(3-hydroxy-3-methylbutyl)-1-methyl-2-oxo-2,3-dihydro-1H-benzo[d]imidazol-5-yl)amino)pyrimidin-2-yl)piperidine-3-carbonitrile]: the “BCL6 degradation” value on BCL6 [1] is recorded as “did not enable degradation”.

As for `Cn1c(=O)n(C)c2cc(Nc3cc(SCc4ccccc4)ncn3)ccc21` [Compound 3], on BCL6 BTB, the IC50 was about 100 µM.

In the case of `C[C@@H]1CN(c2ncc(Cl)c(Nc3ccc4c(c3)n(CCC(C)(C)O)c(=O)n4C)n2)C[C@H](C)O1` [Compound 25a, 5-((5-Chloro-2-((2R,6S)-2,6-dimethylmorpholino)pyrimidin-4-yl)amino)-3-(3-hydroxy-3-methylbutyl)-1-methyl-1,3-dihydro-2H-benzo[d]imidazol-2-one], the “BCL6 degradation” value on BCL6 [1] is listed as “not capable of inducing BCL6 degradation”.

For the compound `Cn1c(=O)n(CCC(C)(C)O)c2cc(Nc3ccnc(Cl)c3C#N)ccc21` [Compound 17a, 2-Chloro-4-((3-(3-hydroxy-3-methylbutyl)-1-methyl-2-oxo-2,3-dihydro-1H-benzo[d]imidazol-5-yl)amino)nicotinonitrile], the “Aq. sol. (HPLC, shown in parentheses)” value in the series “HPLC solubility assay” is “(25) μM”.

Turning to `C[C@@H]1CN(c2ncc(Cl)c(Nc3ccc4c(c3)n(CCC(C)(C)O)c(=O)n4C)n2)C[C@H](C)C1(F)F` [Compound 1, 5-((5-Chloro-2-((3R,5S)-4,4-difluoro-3,5-dimethylpiperidin-1-yl)pyrimidin-4-yl)amino)-3-(3-hydroxy-3-methylbutyl)-1-methyl-1,3-dihydro-2H-benzo[d]imidazol-2-one], in [5], the “appearance of mice after dosing” value is given as “appeared normal”. Moreover, the “time mean total blood concentration above the desired concentration” value in [6] is listed as “approximately 10 h”. Further, on BCL6 levels in tumor, the “free concentration that leads to degradation of BCL6 in tumor” value is recorded as over 1 nM and the “time of maximal effect on tumor BCL6” value is listed as about 4 h. On BCL6 levels in tumor (OCI-Ly1 xenograft, up to 10 h after dosing), the “levels of BCL6 in the tumor” value is “clear decrease in levels of BCL6 in the tumor”. The adverse events result on BCL6 levels in tumor (SCID mice) is on record as “No visible adverse events were observed”.

Consider `COCC1CN(c2ncc(Cl)c(Nc3ccc4c(c3)n(CCC(C)(C)O)c(=O)n4C)n2)CCC1(F)F` (centres unmarked) [Compound 27f, 5-((5-Chloro-2-(4,4-difluoro-3-(methoxymethyl)piperidin-1-yl)pyrimidin-4-yl)amino)-3-(3-hydroxy-3-methylbutyl)-1-methyl-1,3-dihydro-2H-benzo[d]imidazol-2-one], for which the “BCL6 degradation” value on BCL6 [1] is recorded as “reduced degradation”.

As usually defined, the IC50 is the concentration needed to halve the response being measured. Low readings indicate inhibition by little substance, high ones a need for much substance.
